Measured values reported in patent publication US5015470A, “Cosmetic composition” (priority 1986, dated 1991).
Like-named read-outs stand apart in the source and are kept apart here.

Tests used:
[1] = test system: hair growth (clipped patch of skin, upper back of male rats); test: Measurement of hair growth using the rat model (cumulative clipped hair weight, topical application); format: in vivo
Method: The effect of compounds on hair growth was assessed using male rats as an animal model as follows. In each of the comparisons reported below, 10 rats were used.
A small patch of normal skin (4cm ×4cm) on the upper back of each rat was clipped at the start of the experiment and a hair growth stimulant composition (or a control) applied twice daily topically to the clipped area. Hair was clipped from the area of the patch twice weekly, collected and weighed at each time point, and cumulative hair weight calculated. […] A positive response, ie. an increase of at least 10% by weight of hair, compared with a control, indicates the potential of the test substance to prevent hair loss and/or reverse baldness in human subjects.
In this example, the effect of topical application of D-glucaro-1,4-lactone, an inhibitor of β-glucuronidaseis shown. The test solution in this experiment contained approximately 7% (w/v) of the glucarolactone in the form of an equilibrium mixture prepared from boiled calcium glucarate. The vehicle was 33% (v/v) ethanol containing 50mM Na citrate at pH 4.2. Test or control solutions (0.3ml) were applied twice-daily to the clipped site; the hair growth results are shown below in Table 2.
This effect is illustrated in Table 3 below, in which the vehicle was 33% v/v ethanol in 50mM sodium citrate, pH4.2:
In a further experiment, glucarolactone was tested in the presence of an activity enhancer, 1-methylpyrrolidone. Again, a significant increase in hair weight was obtained, as shown below in Table 4, in which the vehicle was 33% v/v aqueous ethanol containing 50mM Na citrate buffer pH4.2 and 10% w/v 1-methylpyrrolidone. […]

[2] = molecular target: T1, β-glucuronidase (Homo sapiens, UniProt P08236); test: Inhibition of β-glucuronidase activity (nitrophenyl glucuronide substrate, method of Dingle); format: biochemical; settings: for inhibition of γ-glucuronidase activity (so in the source), in words: statement referring to experiments described later
T1 sequence (P08236 23-651): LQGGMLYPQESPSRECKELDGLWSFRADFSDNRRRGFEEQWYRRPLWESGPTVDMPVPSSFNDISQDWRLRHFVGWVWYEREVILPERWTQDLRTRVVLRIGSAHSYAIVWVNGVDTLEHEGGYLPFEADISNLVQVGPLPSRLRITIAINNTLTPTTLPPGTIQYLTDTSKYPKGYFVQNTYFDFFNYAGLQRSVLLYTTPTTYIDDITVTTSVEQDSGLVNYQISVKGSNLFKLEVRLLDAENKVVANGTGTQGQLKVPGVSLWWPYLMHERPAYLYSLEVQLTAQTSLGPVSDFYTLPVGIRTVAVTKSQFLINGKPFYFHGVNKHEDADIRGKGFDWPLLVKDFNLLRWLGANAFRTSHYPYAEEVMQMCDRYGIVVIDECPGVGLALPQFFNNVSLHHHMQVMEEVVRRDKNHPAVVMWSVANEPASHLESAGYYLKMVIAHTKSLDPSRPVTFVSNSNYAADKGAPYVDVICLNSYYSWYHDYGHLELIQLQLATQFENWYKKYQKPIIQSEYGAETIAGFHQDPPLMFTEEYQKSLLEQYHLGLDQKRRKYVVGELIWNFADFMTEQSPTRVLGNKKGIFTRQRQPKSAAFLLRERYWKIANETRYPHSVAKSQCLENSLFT
Method: In each of the assays referred to herein, the chemical inhibitor was tested at a pH close to the optimum pH value of the relevant enzyme, and under conditions of saturating substrate concentration, to ensure that Vmax was obtained in the controls. […] The activity of each of these four exoglycosidases was measured using a method described in "Lysosomes, A Laboratory Handbook", edited by […]., Second Edition, (1977) at page 118. […] [Ibid., page 118] as described herein. […] [Ibid., page 118]. The results when the acid or the lactone were incubated with a mixture of this enzyme and the nitrophenyl glucuronide substrate were as follow: […]

[3] = cited from earlier work
[4] = molecular target: T1, β-glucuronidase; settings: Levvy and Snaith (1972); cited from earlier work
[5] = test system: α-glucuronidase; settings: Levvy and Snaith (1972); cited from earlier work
[6] = test system: hair growth; settings: 1% solution, daily application for six months; cited from earlier work
[7] = test system: hair growth (skin of shaved rabbits); settings: repeated injection into skin of shaved rabbits; cited from earlier work
[8] = Table 3, 7% glucarolactone, 0.2% minoxidil, or both, 45 days
[9] = Table 3, 7% glucarolactone, 0.2% minoxidil, or both, vehicle 33% v/v ethanol in 50mM sodium citrate, pH4.2, vehicle control 427.2 ± 58.7
[10] = read-out: percentage inhibition of a 1mM concentration, 1 mM, worked out from 1.03 or 1.14 mM

Compound: Nc1cc(N2CCCCC2)nc(N)[n+]1[O-] [minoxidil, reference compound]
- increase in hair growth ([1]; 2% (w/v) minoxidil vs vehicle, 45 days): 55%
- Mean Cumulative hair weight (mg) ± sd, after 45 days ([1]; Table 1, 2% (w/v) topical twice daily, vehicle 70% ethanol, 20% water, 10% propylene glycol, vehicle control 387.3 ± 75.9): 599.2 ± 85.1 mg
- Increase in hair growth (%) (Test vs control) [1, 8]: 9%
- Mean Cumulative hair weight (mg) ± sd, after 45 days [1, 9]: 465.8 ± 48.8 mg
- inhibition at 50 µg/mL ([2]; 0.05 mg/ml (0.24 mM)): 2%
- inhibition at 400 µg/mL ([2]; 0.4 mg/ml (1.9 mM)): 12%
- inhibition at 800 µg/mL ([2]; 0.8 mg/ml (3.8 mM)): 23%
- enzyme inhibition in words (weak inhibitor) ([2]; 1 mM, β-glucuronidase): weak enzyme inhibitor
- inhibition at 1000 µM ([2]; 1 mM, β-glucuronidase, read-out: enzyme inhibition in words (weak inhibitor)): 5 to 50%
- inhibition at 1000 µM ([2]; read-out: percent inhibition of a 1mM concentration): 6%
- side effects of orally administered minoxidil ([3]; oral): fluid retention, tachycardia, dyspnea, gynecomastia, fatigue, nausea and cardiotoxicity
- side effects following topical application ([3]; topical): certain side effects have been experienced following topical application of minoxidil

Compound: O=C[C@H](O)[C@@H](O)[C@H](O)[C@H](O)C(=O)O [glucuronic acid, D-glucuronic acid]
- inhibition at 200 µg/mL ([2]; 0.2 mg/ml (1.03 mM)): 20%
- enzyme inhibition in words (weak inhibitor) ([2]; 1 mM, β-glucuronidase): weak enzyme inhibitors
- inhibition at 1000 µM [2, 10]: 19.4%
- inhibition of γ-glucuronidase activity (so in the source), in words [2]: weak inhibitors
- inhibition of β-glucuronidase, in words [4]: feebly inhibited
- inhibition of α-glucuronidase, in words [5]: feebly inhibited
- regrowth of hair, in words [6]: regrowth of hair

Compound: zinc gluconate
- increase in hair growth ([1]; 2% (w/v) zinc gluconate, 45 days (Table 6)): 16%
- Mean Cumulative hair weight (mg) ± sd, after 45 days ([1]; Table 6, 2% (w/v), vehicle 20% aqueous ethanol, vehicle control 397.8 ± 56.3): 460.9 ± 45.7 mg

Compound: heparan sulphate
- initiation of the hair growth cycle with stimulation of hair growth, in words [7]: particularly active

Compound: O=C[C@H](O)[C@H]1OC(=O)[C@@H](O)[C@H]1O [glucurono-6,3-lactone, D-Glucurono-6,3-lactone]
- inhibition at 200 µg/mL ([2]; 0.2 mg/ml (1.14 mM)): 51%
- enzyme inhibition in words (weak inhibitor) ([2]; 1 mM, β-glucuronidase): weak enzyme inhibitors
- inhibition at 1000 µM [2, 10]: 44.7%
- inhibition of γ-glucuronidase activity (so in the source), in words [2]: weak inhibitors

Compound: O=C(O)[C@@H](O)[C@H]1OC(=O)[C@H](O)[C@H]1O [glucarolactone, D-glucaro-1,4-lactone]
- stimulation of hair growth (increase) ([1]; 7% glucarolactone vs vehicle, Table 2): 13%
- increase in hair growth ([1]; 7% glucarolactone with 0.1% w/v Triton X-100, 43 days (Table 5)): 39%
- increase in hair growth ([1]; 7% glucarolactone with 10% w/v 1-methylpyrrolidone, 46 days (Table 4)): 15%
- Mean Cumulative hair weight (mg) ± sd, after 45 days ([1]; Table 2, approx. 7% (w/v), 0.3 ml twice daily, vehicle 33% (v/v) ethanol, 50mM Na citrate pH 4.2, vehicle control 427.2 ± 58.7): 482.7 ± 58.4 mg
- Increase in hair growth (%) (Test vs control) [1, 8]: 13%
- Mean Cumulative hair weight (mg) ± sd, after 45 days [1, 9]: 482.7 ± 58.4 mg
- Mean Cumulative Hair Weight (mg) ± sd, after 46 days ([1]; Table 4, 7%, vehicle 33% v/v aqueous ethanol, 50mM Na citrate pH4.2, 10% w/v 1-methylpyrrolidone, vehicle control 611.1 ± 48.1): 706.2 ± 86.6 mg
- Mean Cumulative Hair Weight (mg) ± sd, after 43 days ([1]; Table 5, 7%, vehicle 20% v/v ethanol, 50mM sodium citrate pH4.2, 0.1% w/v Triton X-100, vehicle control 412.3 ± 57.5): 573.3 ± 82.5 mg
- effect on hair growth in combination with a low concentration of minoxidil ([1]; result in words): synergistic effect on hair growth in combination with a low concentration of minoxidil
- effect on onset of anagen / hair cycle ([1]; result in words): consistently found to advance the onset of anagen, thus reducing the amount of time spent in the resting stage of hair cycle

Compound: dermatan sulphate
- initiation of the hair growth cycle with stimulation of hair growth, in words [7]: also active in this respect, but to a lesser extent

Compound: chondroitin-6-sulphate
- initiation of the hair growth cycle with stimulation of hair growth, in words [7]: also active in this respect, but to a lesser extent
